Measured values reported in ChEMBL document CHEMBL3632614, “Small molecules that promote regenerative repair for pancreatic and cardiovascular health” (2015).

Assays:
[1] = Induction of rat beta cell proliferation after 3 days relative to control; format: functional, Pancreatic beta cell
[2] = species: Rattus norvegicus; assay: Increase in rat beta cell mass in rat T1DM model after 45 days; format: functional
[3] = Induction of rat beta cell proliferation assessed as increase in PDX1 expressing cells relative to control; format: functional, Pancreatic beta cell

In the case of COC(=O)C1=C(C)NC(C)=C([N+](=O)[O-])C1c1ccccc1C(F)(F)F (centres undefined), the “fold change (FC)” value [1] is reported as 2.5.

With CN1CCN(Cc2ccc(NC(=O)Cc3ccc(Oc4cc(NC(=O)C5CC5)ncn4)cc3)cc2C(F)(F)F)CC1 the Activity [1] was “<=4%” and the Activity [2] was 50%.

With Nc1ncnc2nc(-c3ccc(N4CCOCC4)nc3)cc(-c3cccc(Br)c3)c12 the “fold change (FC)” value [3] was 2.
